Reference: the supplement of paper PMC10307832

These cell lines were tested with COC1=C(C=C(C=C1)C2=CC3=NC=CN3C(=N2)NC4=C(C=CC=N4)C(=O)N)OC [BAY61-3606] + Nc1nc2[nH]cc(CCc3ccc(C(=O)N[C@@H](CCC(=O)O)C(=O)O)cc3)c2c(=O)[nH]1 [Pemetrexed] (partner 0.2 µM) (assay: relative viability (nuclei count vs DMSO), 5 days (fraction); higher = more cells survive). Details: first compound 0.02 µM.
Method in brief: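 For relative viability, nuclei counts in treated wells were divided by those in vehicle wells. Lung cancer cell lines had been pin-tool dosed in 1536-well plates the day after seeding and cultured for 5 days, then fixed and stained in one step (final 0.05% Triton X-100, 1% formaldehyde, 1 ug/ml Hoechst) and imaged at 4×. Doses were one drug alone or a fixed anchor-drug dose plus five library-drug doses (not always all listed) in √10 steps, and values are duplicate-plate medians.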

Question: With NCI-H2342 as the cell line, how does the relative viability read?
Answer: 0.748

Question: How did the relative viability turn out when RERF-LC-KJ was run?
Answer: 0.467

Question: NCI-H1651 was tested. Which relative viability did it give?
Answer: 0.608

Question: NCI-H1734 was tested. Which relative viability did it give?
Answer: 0.401

Question: Which relative viability does the source give for NCI-H2009 here?
Answer: 1

Question: Which relative viability does the source give for NCI-H596 here?
Answer: 0.454

Question: Which relative viability does the source give for SK-LU-1 here?
Answer: 0.974

Question: How did the relative viability turn out when SW 1573 was run?
Answer: 0.924

Question: With LCLC-97TM1 as the cell line, how does the relative viability read?
Answer: 0.188

Question: For NCI-H661, which relative viability is on record?
Answer: 0.963

Question: How did the relative viability turn out when NCI-H2228 was run?
Answer: 0.326

Question: How did the relative viability turn out when EMC-BAC-2 was run?
Answer: 0.464

Question: For NCI-H2087, which relative viability is on record?
Answer: 0.578

Question: With HCC-44 as the cell line, how does the relative viability read?
Answer: 0.613

Question: For LK-2, which relative viability is on record?
Answer: 0.245

Question: With NCI-H2126 as the cell line, how does the relative viability read?
Answer: 0.708

Question: How did the relative viability turn out when NCI-H1648 was run?
Answer: 0.803

Question: NCI-H1793 was tested. Which relative viability did it give?
Answer: 0.983

Question: With H3255 as the cell line, how does the relative viability read?
Answer: 0.587

Question: Which relative viability does the source give for COR-L23 here?
Answer: 0.198

Question: COR-L 105 was tested. Which relative viability did it give?
Answer: 1.24

Question: Which relative viability does the source give for LC-2-ad here?
Answer: 0.289

Question: For LU99A, which relative viability is on record?
Answer: 0.175

Question: How did the relative viability turn out when NCI-H358 was run?
Answer: 0.196

Question: NCI-H522 was tested. Which relative viability did it give?
Answer: 1.15

Question: SW 900 was tested. Which relative viability did it give?
Answer: 0.473

Question: How did the relative viability turn out when NCI-H1395 was run?
Answer: 1.04

Question: How did the relative viability turn out when NCI-H1563 was run?
Answer: 0.894

Question: How did the relative viability turn out when NCI-H1792 was run?
Answer: 1.07

Question: How did the relative viability turn out when NCI-H1944 was run?
Answer: 0.677

Question: For NCI-H2170, which relative viability is on record?
Answer: 0.285

Question: Which relative viability does the source give for SK-MES-1 here?
Answer: 1.03

Same assay, conditions: first compound 0.06325 µM

Question: With NCI-H2342 as the cell line, how does the relative viability read?
Answer: 0.774

Question: How did the relative viability turn out when RERF-LC-KJ was run?
Answer: 0.463

Question: NCI-H1651 was tested. Which relative viability did it give?
Answer: 0.544

Question: NCI-H1734 was tested. Which relative viability did it give?
Answer: 0.409

Question: With NCI-H2009 as the cell line, how does the relative viability read?
Answer: 1.01

Question: With NCI-H596 as the cell line, how does the relative viability read?
Answer: 0.511

Question: Which relative viability does the source give for SK-LU-1 here?
Answer: 1.02

Question: For SW 1573, which relative viability is on record?
Answer: 0.833

Question: With LCLC-97TM1 as the cell line, how does the relative viability read?
Answer: 0.165

Question: How did the relative viability turn out when NCI-H661 was run?
Answer: 1.01

Question: How did the relative viability turn out when NCI-H2228 was run?
Answer: 0.325

Question: How did the relative viability turn out when EMC-BAC-2 was run?
Answer: 0.438

Question: How did the relative viability turn out when NCI-H2087 was run?
Answer: 0.685

Question: With HCC-44 as the cell line, how does the relative viability read?
Answer: 0.692

Question: LK-2 was tested. Which relative viability did it give?
Answer: 0.232

Question: With NCI-H2126 as the cell line, how does the relative viability read?
Answer: 0.654

Question: With NCI-H1648 as the cell line, how does the relative viability read?
Answer: 0.622

Question: Which relative viability does the source give for NCI-H1793 here?
Answer: 0.88

Question: How did the relative viability turn out when H3255 was run?
Answer: 0.546

Question: With COR-L23 as the cell line, how does the relative viability read?
Answer: 0.203

Question: For COR-L 105, which relative viability is on record?
Answer: 1.13

Question: How did the relative viability turn out when LC-2-ad was run?
Answer: 0.267

Question: LU99A was tested. Which relative viability did it give?
Answer: 0.149

Question: Which relative viability does the source give for NCI-H358 here?
Answer: 0.184

Question: For NCI-H522, which relative viability is on record?
Answer: 0.966

Question: How did the relative viability turn out when NCI-H1395 was run?
Answer: 0.659

Question: Which relative viability does the source give for NCI-H1563 here?
Answer: 0.745

Question: How did the relative viability turn out when NCI-H1792 was run?
Answer: 1.09

Question: For NCI-H1944, which relative viability is on record?
Answer: 0.565

Question: How did the relative viability turn out when NCI-H2170 was run?
Answer: 0.268

Question: With SK-MES-1 as the cell line, how does the relative viability read?
Answer: 0.909

Same assay, conditions: first compound 0.2 µM

Question: How did the relative viability turn out when NCI-H2342 was run?
Answer: 0.716

Question: Which relative viability does the source give for RERF-LC-KJ here?
Answer: 0.501

Question: NCI-H1651 was tested. Which relative viability did it give?
Answer: 0.492

Question: For NCI-H1734, which relative viability is on record?
Answer: 0.383

Question: With NCI-H2009 as the cell line, how does the relative viability read?
Answer: 1.02

Question: For NCI-H596, which relative viability is on record?
Answer: 0.534

Question: For SK-LU-1, which relative viability is on record?
Answer: 1.01

Question: With SW 1573 as the cell line, how does the relative viability read?
Answer: 0.804

Question: For LCLC-97TM1, which relative viability is on record?
Answer: 0.195

Question: With NCI-H661 as the cell line, how does the relative viability read?
Answer: 0.84

Question: How did the relative viability turn out when NCI-H2228 was run?
Answer: 0.391

Question: How did the relative viability turn out when EMC-BAC-2 was run?
Answer: 0.449

Question: For NCI-H2087, which relative viability is on record?
Answer: 0.682

Question: How did the relative viability turn out when HCC-44 was run?
Answer: 0.682

Question: With LK-2 as the cell line, how does the relative viability read?
Answer: 0.384

Question: NCI-H2126 was tested. Which relative viability did it give?
Answer: 0.639

Question: For NCI-H1648, which relative viability is on record?
Answer: 0.79

Question: For NCI-H1793, which relative viability is on record?
Answer: 0.896

Question: Which relative viability does the source give for H3255 here?
Answer: 0.598

Question: For COR-L23, which relative viability is on record?
Answer: 0.2

Question: For COR-L 105, which relative viability is on record?
Answer: 1.11

Question: Which relative viability does the source give for LC-2-ad here?
Answer: 0.261

Question: With LU99A as the cell line, how does the relative viability read?
Answer: 0.193

Question: Which relative viability does the source give for NCI-H358 here?
Answer: 0.226

Question: For NCI-H522, which relative viability is on record?
Answer: 1.04

Question: Which relative viability does the source give for NCI-H1395 here?
Answer: 0.72

Question: NCI-H1563 was tested. Which relative viability did it give?
Answer: 0.669

Question: How did the relative viability turn out when NCI-H1792 was run?
Answer: 0.852

Question: With NCI-H1944 as the cell line, how does the relative viability read?
Answer: 0.644

Question: How did the relative viability turn out when NCI-H2170 was run?
Answer: 0.278

Question: SK-MES-1 was tested. Which relative viability did it give?
Answer: 0.869

Same assay, conditions: first compound 0.6325 µM

Question: With NCI-H2342 as the cell line, how does the relative viability read?
Answer: 0.825

Question: Which relative viability does the source give for RERF-LC-KJ here?
Answer: 0.484

Question: How did the relative viability turn out when NCI-H1651 was run?
Answer: 0.537

Question: How did the relative viability turn out when NCI-H1734 was run?
Answer: 0.358

Question: For NCI-H2009, which relative viability is on record?
Answer: 0.918

Question: With NCI-H596 as the cell line, how does the relative viability read?
Answer: 0.555

Question: SK-LU-1 was tested. Which relative viability did it give?
Answer: 0.968

Question: For SW 1573, which relative viability is on record?
Answer: 0.916

Question: How did the relative viability turn out when LCLC-97TM1 was run?
Answer: 0.145

Question: With NCI-H661 as the cell line, how does the relative viability read?
Answer: 0.931

Question: NCI-H2228 was tested. Which relative viability did it give?
Answer: 0.393

Question: For EMC-BAC-2, which relative viability is on record?
Answer: 0.438

Question: How did the relative viability turn out when NCI-H2087 was run?
Answer: 0.625

Question: How did the relative viability turn out when HCC-44 was run?
Answer: 0.659

Question: With LK-2 as the cell line, how does the relative viability read?
Answer: 0.288

Question: How did the relative viability turn out when NCI-H2126 was run?
Answer: 0.713

Question: With NCI-H1793 as the cell line, how does the relative viability read?
Answer: 1.13

Question: Which relative viability does the source give for H3255 here?
Answer: 0.626

Question: Which relative viability does the source give for COR-L23 here?
Answer: 0.202

Question: How did the relative viability turn out when COR-L 105 was run?
Answer: 0.994

Question: Which relative viability does the source give for LC-2-ad here?
Answer: 0.289

Question: For LU99A, which relative viability is on record?
Answer: 0.171

Question: With NCI-H358 as the cell line, how does the relative viability read?
Answer: 0.163

Question: With NCI-H522 as the cell line, how does the relative viability read?
Answer: 0.907

Question: For SW 900, which relative viability is on record?
Answer: 0.465

Question: With NCI-H1395 as the cell line, how does the relative viability read?
Answer: 0.899

Question: With NCI-H1563 as the cell line, how does the relative viability read?
Answer: 0.84

Question: With NCI-H1792 as the cell line, how does the relative viability read?
Answer: 0.771

Question: With NCI-H1944 as the cell line, how does the relative viability read?
Answer: 0.583

Question: For NCI-H2170, which relative viability is on record?
Answer: 0.258

Question: With SK-MES-1 as the cell line, how does the relative viability read?
Answer: 0.88

Same assay, conditions: first compound 2 µM

Question: NCI-H2342 was tested. Which relative viability did it give?
Answer: 0.811

Question: How did the relative viability turn out when RERF-LC-KJ was run?
Answer: 0.432

Question: NCI-H1651 was tested. Which relative viability did it give?
Answer: 0.531

Question: NCI-H1734 was tested. Which relative viability did it give?
Answer: 0.354

Question: With NCI-H2009 as the cell line, how does the relative viability read?
Answer: 0.91

Question: NCI-H596 was tested. Which relative viability did it give?
Answer: 0.486

Question: SK-LU-1 was tested. Which relative viability did it give?
Answer: 0.661

Question: SW 1573 was tested. Which relative viability did it give?
Answer: 0.53

Question: For LCLC-97TM1, which relative viability is on record?
Answer: 0.166

Question: With NCI-H661 as the cell line, how does the relative viability read?
Answer: 0.703

Question: Which relative viability does the source give for NCI-H2228 here?
Answer: 0.369

Question: With EMC-BAC-2 as the cell line, how does the relative viability read?
Answer: 0.523

Question: NCI-H2087 was tested. Which relative viability did it give?
Answer: 0.588

Question: HCC-44 was tested. Which relative viability did it give?
Answer: 0.651

Question: With LK-2 as the cell line, how does the relative viability read?
Answer: 0.252

Question: How did the relative viability turn out when NCI-H2126 was run?
Answer: 0.58

Question: With NCI-H1648 as the cell line, how does the relative viability read?
Answer: 0.874

Question: Which relative viability does the source give for NCI-H1793 here?
Answer: 1.08

Question: How did the relative viability turn out when H3255 was run?
Answer: 0.593

Question: How did the relative viability turn out when COR-L23 was run?
Answer: 0.195

Question: Which relative viability does the source give for COR-L 105 here?
Answer: 0.968

Question: With LC-2-ad as the cell line, how does the relative viability read?
Answer: 0.267

Question: LU99A was tested. Which relative viability did it give?
Answer: 0.166

Question: Which relative viability does the source give for NCI-H358 here?
Answer: 0.153

Question: For NCI-H522, which relative viability is on record?
Answer: 0.817

Question: With SW 900 as the cell line, how does the relative viability read?
Answer: 0.358

Question: For NCI-H1395, which relative viability is on record?
Answer: 0.73

Question: For NCI-H1563, which relative viability is on record?
Answer: 0.712

Question: Which relative viability does the source give for NCI-H1792 here?
Answer: 0.614
